This passage reports EC50 and IC50 results from ChEMBL document CHEMBL1157778, “Frontal affinity chromatography-mass spectrometry useful for characterization of new ligands for GPR17 receptor” (J Med Chem, 2010).

pEC50, pIC50: −log10 of the molar value.

The term pEC50 denotes the EC50 on a negative log10 scale, so that one unit is a factor of ten. What is called pIC50 is the IC50 on a negative log10 scale, so that one unit is a factor of ten.

What all share (format): functional, cell-based
Assay [1] can be described thus: Agonist activity at human GPR17 R255I mutant expressed in human 1321N1 cells assessed as induction of [35S]GTPgammaS binding after 30 mins by rapid filtration assay.
Assay [2] deals with T1, Uracil nucleotide/cysteinyl leukotriene receptor (Homo sapiens, UniProt Q13304). Description: Agonist activity at human GPR17 expressed in human 1321N1 cells assessed as induction of [35S]GTPgammaS binding after 30 mins by rapid filtration assay. (GTPγS resists hydrolysis and so accumulates on activated G proteins.)
Assay [3] addresses T1, Uracil nucleotide/cysteinyl leukotriene receptor. Description: Antagonist activity at human GPR17 expressed in human 1321N1 cells assessed as inhibition of UDP-glucose-induced [35S]GTPgammaS binding after 30 mins by rapid filtration assay.
Assay [4] can be described thus: Antagonist activity at human GPR17 R255I mutant expressed in human 1321N1 cells assessed as inhibition of UDP-glucose-induced [35S]GTPgammaS binding after 30 mins by rapid filtration assay.

T1 sequence (Q13304 whole entry): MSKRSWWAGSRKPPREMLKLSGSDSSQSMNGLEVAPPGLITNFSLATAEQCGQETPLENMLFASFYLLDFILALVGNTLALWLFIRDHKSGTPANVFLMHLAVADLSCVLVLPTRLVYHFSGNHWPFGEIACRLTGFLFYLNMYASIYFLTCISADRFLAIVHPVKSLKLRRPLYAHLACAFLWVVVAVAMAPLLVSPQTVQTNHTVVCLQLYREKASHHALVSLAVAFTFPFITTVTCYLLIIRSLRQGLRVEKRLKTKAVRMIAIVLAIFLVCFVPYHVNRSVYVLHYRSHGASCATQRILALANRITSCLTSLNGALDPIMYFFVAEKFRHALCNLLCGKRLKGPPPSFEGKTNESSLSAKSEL

Take `Nc1nc(C#Cc2ccccc2)nc2c1ncn2[C@@H]1O[C@H](COP(=O)(O)OP(=O)(O)OP(=O)(O)O)[C@@H](O)[C@H]1O`: the negative logarithm of the EC50 (pEC50) in assay [1] is 10.60; in assay [2], 10.44.

`O=c1[nH]c(=O)n([C@@H]2O[C@H](COP(=O)(O)OP(=O)(O)O)[C@@H](O)[C@H]2O)cc1I`: the negative logarithm of the EC50 (pEC50) in assay [1] is 5.73; in assay [2] it was 6.02.

As for `CNc1ncnc2c1ncn2[C@@H]1O[C@H](COP(=O)(O)OP(=O)(O)OP(=O)(O)O)[C@@H](O)[C@H]1O`, in assay [3], the pIC50 was 6.95.

As to `CNc1nc(Cl)nc2c1ncn2[C@@H]1O[C@H](COP(=O)(O)OP(=O)(O)OP(=O)(O)O)[C@@H](O)[C@H]1O`, the negative logarithm of the EC50 (pEC50) in assay [2] was 7.96.

Take `CNc1ncnc2c1ncn2[C@H]1C[C@H](OP(=O)(O)O)[C@@H](COP(=O)(O)O)O1`: the pIC50 was 6.29 in assay [3] and 6.64 in assay [4].

Regarding `O=P(O)(O)OP(=O)(O)OP(=O)(O)OC[C@H]1O[C@@H](n2cnc3c(NC4CCCC4)ncnc32)[C@H](O)[C@@H]1O`, the pEC50 in assay [2] was 8.85.

Take `CNc1nc(Cl)cc2c1ncn2[C@@H]1O[C@H](COP(=O)(O)OP(=O)(O)OP(=O)(O)O)[C@@H](O)[C@H]1O`: the pEC50 in assay [2] was 8.77.

Turning to `Nc1nc(Cl)nc2c1ncn2[C@H]1C[C@H](OP(=O)(O)O)[C@@H](COP(=O)(O)O)O1`, the pIC50 in assay [3] is 6.24.
